Here are results for 28 compounds from PubChem BioAssay (NCI).

Molecules are shown by their SMILES.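 The compound was tested at five concentrations on cells cultured in 96-well plates, with a 48-hour exposure period. TGI: total growth inhibition.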 Where a SMILES comes first, the peptide text is derived from it. The star is where a group is joined. Boc = CC(C)(C)OC(=O)*

Test in all cases: NCI tumour cell line growth inhibition, 48 h
Test [1] has as its system NCI/ADR-RES ovarian.
Test [2] deals with LOX IMVI melanoma.
For test [3], the system named is IGROV1 ovarian.
Test [4] relates to RXF 393 renal.

With `Cc1cc(C)nc(NS(=O)(=O)c2ccc(Nc3nncc(=O)n3N)cc2)n1`, the TGI in test [1] turned out to be 55.9 µM; in test [2], 27.7 µM; in test [3], 33.1 µM.

In the case of `CCOP(C)(=O)C(Cc1c[nH]c2ccccc12)C(=O)O` (configuration not stated), the TGI in test [1] and in test [3] was over 100 µM throughout.

On to `COc1c(C)c(C/C=C(\C)CCCCO[Si](C(C)C)(C(C)C)C(C)C)c(OC)c2ccccc12`, for which the TGI in test [1], in test [2], in test [4] and in test [3] was over 100 µM in each case.

Take `CCOC(=O)c1ccc(Nc2nc3cc(C(F)(F)F)ccc3nc2-c2ccccc2)cc1`: the TGI in test [1] is over 100 µM; in test [2], over 100 µM; in test [4] it was 98 µM; in test [3], over 100 µM.

Turning to `CC1(c2ccc(F)cc2)CC(c2ccc(F)cc2)=C(C#N)C(=C(C#N)C#N)N1` (configuration not stated), the TGI in test [1] amounted to 48.4 µM; in test [2], 38.6 µM; in test [4], 28.3 µM; in test [3], 32.3 µM.

For `COC1=C2CC(C)CC(OC)[C@@H](OC(=O)CCN)[C@H](C)/C=C(\C)C(OC(N)=O)C(OC)/C=C\C=C(/C)C(=O)NC(=CC1=O)C2=O` (some centres not stated), the TGI came out at 34.5 µM in test [1], 2.22 µM in test [2], 17.5 µM in test [4] and 3.25 µM in test [3].

For the compound `CC(NC(=O)C(NC(=O)OC(C)(C)C)C(C)C)C(=O)N1CCCC1C(=O)NCC(=O)NC(C(=O)NCC(=O)O)C(C)C` (configuration not stated) (Boc-VAPGVG-OH; configuration not given here), the TGI in test [1], in test [2] and in test [3] was over 100 µM each time.

Consider `CCOc1ccc(N=NC2C(=O)N(C(=O)CC(=O)Nc3ccccc3OC)N=C2C)cc1` (configuration not stated), for which the TGI was over 100 µM in test [1], over 100 µM in test [2], 26.3 µM in test [4] and over 100 µM in test [3].

In the case of `CSc1c(C(=O)Nc2ccc(Cl)cc2)c(N)nn1-c1ccccc1`, the TGI in test [1] was over 100 µM; in test [2] it was over 100 µM; in test [4] it was over 87.4 µM; in test [3] it was over 100 µM.

On to `C=CC(Cl)(CBr)CCC(Br)=C(C)C` (configuration not stated), for which the TGI in test [1] is 91.2 µM; in test [2], 37.8 µM; in test [4], 38.5 µM; in test [3] it was 29.9 µM.

Turning to `CCOC(=O)c1cc2c(ccc3cc(C(=O)OCC)[nH]c32)[nH]1`, the results for the TGI in test [2], in test [4] and in test [3] were over 100 µM, 66.8 µM and over 100 µM, respectively.

Consider `COc1ccc2cc(C(C)C(O)c3cc(F)c(F)c(F)c3F)ccc2c1` (configuration not stated), for which the TGI in test [1], in test [2] and in test [3] was over 100 µM in each case.

Take `CCN(CC)CC(=O)Nc1c(C(N)=O)nnn1Cc1cc(Cl)c(C(=O)c2ccc(Cl)cc2)c(Cl)c1`: the TGI in test [1] was 34.7 µM; in test [2] it was 32.1 µM; in test [4] it was 23.8 µM; in test [3], 74.4 µM.

On to `CC(C)=CCC[C@@H](C)C1=C(O)C(Nc2ccccc2Br)=C(C)C(=O)C1=O`, for which the TGI in test [1] is 28.8 µM; in test [2] it was over 100 µM; in test [4] it was 32.9 µM; in test [3], 37.3 µM.

Consider `CC(=N/NC(=S)N1CCCCC1)/C(=N\NC(=S)N1CCCCC1)c1ccccc1`, for which the TGI in test [1] was 6.43 µM; in test [2], 25.9 µM; in test [4], 2.82 µM; in test [3], 3.27 µM.

As to `O=C(/C=C(\O)c1ccc(Cl)cc1)C(=O)N=Nc1c(O)[nH]c2ccc(Br)cc12`, the TGI in test [1], in test [2], in test [4] and in test [3] was over 100 µM in each case.

Regarding `COc1ccccc1C1SCC(=O)N1c1ccc(-n2c(-c3ccccc3)nc3ccccc3c2=O)cc1` (configuration not stated), the TGI in test [1], in test [2] and in test [3] was over 100 µM throughout.

Regarding `COC(OC)C1OC(CO)C(n2cc(C)c(=O)[nH]c2=O)C1O` (configuration not stated), the TGI in test [1], in test [2], in test [4] and in test [3] was over 100 µM each time.

As to `CCc1n[nH]c(=S)n1/N=C\c1ccc(-c2ccccc2Cl)o1`, the TGI in test [1] is 53.7 µM; in test [2], 66.6 µM; in test [4] it was over 100 µM; in test [3] it was over 100 µM.

Take `COC(=O)[C@@H]1CN(C(=O)c2ccccc2)C(=O)N1`: the TGI in test [1], in test [2], in test [4] and in test [3] was over 100 µM each time.

In the case of `CC1=NN(c2nc(N)nc(CCl)n2)CC1`, the results for the TGI in test [1], in test [4] and in test [3] were 74.1 µM, over 100 µM and 25.9 µM, respectively.

On to `O=C(O)CN1CCNCCN(CP(=O)(O)O)CC1`, for which the TGI in test [2], in test [4] and in test [3] was over 100 µM each time.

As to `COc1ccc(NC(=O)CC(=O)N2N=C(N3CCCCC3)CC2c2ccccc2)cc1` (configuration not stated), the TGI in test [1], in test [2], in test [4] and in test [3] was over 100 µM in each case.

With `CC1Cc2c(Br)nc(N)nc2NC1=O` (configuration not stated), the TGI in test [1], in test [2] and in test [3] was over 100 µM each time.

With `Cc1ccc([N+](=O)[O-])c2c(NCCNC(=O)Cn3ccnc3[N+](=O)[O-])ccnc12`, the TGI in test [1] is over 100 µM; in test [2] it was over 100 µM; in test [4] it was 16.5 µM; in test [3] it was 86.6 µM.

Regarding `COc1cc(C2c3cc4c(cc3OC(NC3CCCCC3)C2C)OCO4)cc(OC)c1OC` (configuration not stated), the TGI in test [1] was 3.86 µM; in test [2], 17.6 µM; in test [4] it was 0.82 µM; in test [3], over 54 µM.

For `COC(=O)/C=C/c1ccc2c(c1)CCC2`, the TGI in test [1], in test [2], in test [4] and in test [3] was over 100 µM each time.

As for `CCOC(=O)Cc1nnc2c(-c3ccccc3)nc3ccccc3n12`, the TGI in test [1] was over 100 µM; in test [2], over 100 µM; in test [4] it was 36.4 µM; in test [3] it was over 100 µM.
